Like-named read-outs stand apart in the source and are kept apart here. Positions of bridges follow the written chain, without caps; N, C: chain ends. Residues, ends and D or L forms follow the SMILES beside them. Chains are numbered I, II in the order given.
Columns and labels:
[1] = test system: primary antibody production; experiment: Effect on the primary antibody production in newborn rats (haemagglutinin titre); format: in vivo, Wistar (LATI) rats; conditions: 1 mg/kg i.p. within 12 hours after birth, haemagglutinin titre on day 7 following immunization with sheep erythrocytes
Experimental: This study is based on the phenomenon of agglutination. A specific antiserum adheres to the surface of the antigen forming large granules which settle rapidly (agglutinate).
Newborn Wistar (LATI) rats were intraperitoneally (i.p.) treated with an 1 mg/kg dose of the test substance within 12 hours after birth. On the 14th day, the animals were i.p. immunized by 0.5 ml of an 1% suspension of sheep erythrocytes. On day 7 following the immunization, blood was taken retroorbitally, after 30 minutes the sera were separated by centrifuging and the haemagglutinin titre was determined according to the method of Takatsy [Acta Microbiol. Acad. Sci. Hung. 3, 191 (1955)]. From the mixed sera (50 μl) of two rats, halving dilutions were prepared in 12 steps. Each sample was given 25 /ul of a 2% suspension of sheep erythroxytes The mixture was incubated at 37° C. for one hour to evaluate the agglutination. The data are summarized in Table 2 which show the suppressing (inhibitory) effect of the compounds on the primary antibody production as a percentage value in relation to the untreated animals. Immunostimulating substances show just the opposite effect in this test.

resting macrophages = format: in vivo, CFLP (LATI) mice; conditions: mice
Experimental: The phagocytating capacity of resting macrophage cells was investigated on mice [J. Immunopharmacol. 4, 265 (1982-1983)]. […] After bleeding the animals, their peritonea were washed with 8 ml of PBS buffer solution (phosphate buffered saline, pH=7.2) each containing 10 IU of heparin. The cell suspension washed out from the peritoneum was made free of the erythrocytes by shocking with distilled water, then washed 3 times with PBS buffer solution. The sedimentation between two washings was achieved by centrifuging at 1000 rpm for 5 minutes. The concentration of each cell suspension was adjusted to 10^6 cell/ml and the suspension was settled for 30 minutes in a Boyden-chamber at 37° C. in an atmosphere containing 5% of carbon dioxide. Over the macrophages adhered to the glass wall, opsonized yeast was layered. After removing the non-phagocytated particles, those incorporated by the macrophages were counted in each cell. In Table 3, the percentage of decrease in the count of phagocytated yeast cells is given in relation to the macrophages isolated from the untreated animals as control.

[2] = test system: late hypersensitive (DTH) response; format: in vivo, CFLP (LATI) mice; conditions: mice sensitized with oxazolone
Experimental: This test was carried out on male CFLP (LATI) mice weighing 25 to 30 g. At the beginning of the experiment, the mice were treated with a 3% solution of oxazolone in anhydrous ethanol by applying 20 μl of solution each on both ears and forepaws. […] The controls were treated only with saline. On day 10 of the experiment, 20 μl of an 2.5% olive oil solution of oxazolone were smeared on each ear of the animals. The thickness of the ears was twice measured, i.e. before and 24 hours after the administration of the antigen. The thickness was measured on both ears in the middle of the ear-lobes with an accuracy of 0.01 mm. The change was compared with the control group. The data concerning the suppression of the development of a DTH response are given as percentage values in Table 4.

antibody-producing cells = experiment: Effect on the antibody-producing cells in newborn rats (plaque-forming cell count of splenocytes); format: in vivo, Wistar (LATI) rats; conditions: 1 mg/kg i.p. within 12 hours of birth, immunized day 14 with sheep erythrocytes, splenocytes 7 days later, vs untreated control
Experimental: This investigation was carried out with splenocytes obtained from newborn rats according to the method of Canningham (Handbook of Experimental Immunology, Ed. D. M. Weir, Vol. 2., Blackwell, Oxford-London, page 285, 1978). Twelve Wistar (LATI) rats arising from a single litter were intraperitoneally (i.p.) treated with 7.5 μg of test substance in a dose of 1 mg/kg within 12 hours of their birth. On the 14th day after birth, the animals were i.p. immunized by 0.5 ml of an 1% suspension of sheep erythrocytes, then bled by decapitation after 7 days. From the splenocytes obtained from the animals, a homogeneous suspension was prepared using sheep erythrocyte suspension and complement which was then put into a chamber suitable for obtaining a monocellular layer. The chambers closed with paraffin were incubated at 37° C. for 45 minutes. Around the antibody-producing splenocytes, lytic areas, the so-called plaques, were formed. Under the effect of treatment with the suppressing substances, the number of the plaque-forming cells (PFC) was decreased. The data summarized in Table 1 illustrate this percentage decrease calculated on the basis of the cells obtained from the untreated control animals.

[3] = therapeutic dose does not significantly differ from the toxic one; cited from earlier work
[4] = 1 mg/kg s.c. daily for 7 days, count of phagocytated yeast cells vs untreated animals
[5] = 1 mg/kg i.p. on day 7, ear thickness 24 hours after antigen on day 10, vs saline control

Structure (SMILES): N=C(N)NCCC[C@H](N)C(=O)N[C@@H](CCCCN)C(=O)N[C@@H](CC(=O)O)C(=O)N[C@@H](CSSC[C@H](NC(=O)[C@H](CC(=O)O)NC(=O)[C@H](CCCCN)NC(=O)[C@@H](N)CCCNC(=N)N)C(N)=O)C(N)=O [(12)] (I: H-RKDC-NH2 / II: H-RKDC-NH2; disulfide I:4-II:4)
- Effect on the primary antibody production, Change in relation to the untreated control % [1]: -10.7%
- Change in the phagocytating capacity of resting macrophages, Change % (resting macrophages; [4]): -40.1%
- Suppression of the DTH response, Suppression % [2, 5]: 35.3%

Structure (SMILES): CC(C)C[C@H](NC(=O)[C@H](CCCCN)NC(=O)[C@H](CO)NC(=O)[C@@H](N)CCCCN)C(=O)O [(13), Lys-Ser-Lys-Leu] (H-KSKL-OH)
- Suppression of the DTH response, Suppression % [2, 5]: 28.2%

Structure (SMILES): CC(C)C[C@H](NC(=O)[C@H](CCCCN)NC(=O)[C@@H](N)CO)C(=O)O [(14), Ser-Lys-Leu] (H-Ser-Lys-Leu-OH)
- Change in the phagocytating capacity of resting macrophages, Change % (resting macrophages; [4]): -14.0%
- Suppression of the DTH response, Suppression % [2, 5]: 22.7%

Structure (SMILES): C[C@@H](O)[C@H](NC(=O)[C@H](CO)NC(=O)[C@H](CO)NC(=O)[C@@H](N)CO)C(=O)O [(15), Ser-Ser-Ser-Thr] (H-SSST-OH)
- Suppression of the DTH response, Suppression % [2, 5]: 18.0%

Structure (SMILES): C[C@@H](O)[C@H](NC(=O)[C@H](CCC(=O)O)NC(=O)[C@@H](N)CCCCN)C(=O)O [(16), Lys-Glu-Thr] (H-Lys-Glu-Thr-OH)
- Suppression of the antibody production, Change % (number of plaque-forming cells) (antibody-producing cells): -36.8%
- Suppression of the DTH response, Suppression % [2, 5]: 27.5%

Structure (SMILES): C[C@@H](O)[C@H](NC(=O)[C@H](CCC(=O)O)NC(=O)[C@@H](NC(=O)[C@@H](N)CCCCN)[C@@H](C)O)C(=O)O [(17), Lys-Thr-Glu-Thr] (H-KTET-OH)
- Suppression of the antibody production, Change % (number of plaque-forming cells) (antibody-producing cells): -23.2%
- Change in the phagocytating capacity of resting macrophages, Change % (resting macrophages; [4]): -17.5%
- Suppression of the DTH response, Suppression % [2, 5]: 35.5%

Structure (SMILES): CC(C)C[C@H](NC(=O)[C@H](CCCCN)NC(=O)[C@@H]1CCCN1)C(=O)N[C@H](C(=O)O)[C@@H](C)O [(18), Pro-Lys-Leu-Thr] (H-PKLT-OH)
- Suppression of the antibody production, Change % (number of plaque-forming cells) (antibody-producing cells): -19.4%
- Change in the phagocytating capacity of resting macrophages, Change % (resting macrophages; [4]): -11.7%

Structure (SMILES): C[C@@H](O)[C@H](NC(=O)[C@H](CCCCN)NC(=O)[C@@H](N)CCCCN)C(=O)N[C@@H](CCC(=O)O)C(=O)O [(19), Lys-Lys-Thr-Glu] (H-KKTE-OH)
- Effect on the primary antibody production, Change in relation to the untreated control % [1]: -10.8%
- Suppression of the antibody production, Change % (number of plaque-forming cells) (antibody-producing cells): -22.9%
- Change in the phagocytating capacity of resting macrophages, Change % (resting macrophages; [4]): -18.6%

Structure (SMILES): O=P1(N(CCCl)CCCl)NCCCO1 (stereo not drawn) [Cyclophosphamide, 2-[-bis(2-chloroethyl)amino]-tetrahydro-2H-1,3,2-oxazaphosphorine-2-oxide, reference compound]
- therapeutic index [3]: below 10
- Change in the phagocytating capacity of resting macrophages, Change % (resting macrophages; 150 mg/kg i.p. dose): -75.0%
- Suppression of the DTH response, Suppression % ([2]; 150 mg/kg i.p. dose): 72%

Structure (SMILES): Cn1cnc([N+](=O)[O-])c1Sc1ncnc2nc[nH]c12 [azathioprin, 6-(1-methyl-4-nitro-5-imidazolylthio)purine]
- therapeutic index [3]: below 10

Source: patent publication US5093320A, “Novel peptides inhibiting the maturation of t-lymphocytes and the activity of macrophages, pharmaceutical compositions containing them and process for preparing same” (priority 1989, dated 1992)
